Data as given in US7834011B2, “Heterocyclylalkyl derivatives as novel inhibitors of histone deacetylase” (Janssen Pharmaceutica N.V., priority 2006, dated 2010).

Legend:
[1] = Kinetic solubility in aqueous media C.3.a (nephelometer); format: physicochemical; details: aqueous buffer, kinetic from dmso stock; phosphate citrate buffer pH 7.4, turbidity; read-out: Kinetic solubility score (C.3.a)
Method: The solubility of a compound measures the ability of a compound to stay in solution. In a first method the ability of a compound to stay in aqueous solution upon dilution (see example C.3.a) is measured. DMSO-stock solutions are diluted with a single aqueous buffer solvent in 3 consecutive steps. For every dilution turbidity is measured with a nephelometer.
In the first dilution step, 10 μl of a concentrated stock-solution of the active compound, solubilized in DMSO (5 mM), was added to 100 μl phosphate citrate buffer pH 7.4 and mixed. In the second dilution step, an aliquot (20 μl) of the first dilution step was further dispensed in 100 μl phosphate citrate buffer pH 7.4 and mixed. Finally, in the third dilution step, a sample (20 μl) of the second dilution step was further diluted in 100 μl phosphate citrate buffer pH 7.4 and mixed. All dilutions were performed in 96-well plates. Immediately after the last dilution step the turbidity of the three consecutive dilution steps were measured with a nephelometer. Dilution was done in triplicate for each compound to exclude occasional errors. Based on the turbidity measurements a ranking is performed into 3 classes. Compounds with high solubility obtained a score of 3 and for this compounds the first dilution is clear. Compounds with medium solubility obtained a score of 2. […]

[2] = Metabolic stability with rat hepatocytes cell culture C.5.b; format: in vitro ADME; details: male, Sprague Dowley, rat hepatocyte cell cultures, read-out: in vitro half-life
From the text: Metabolism of drugs means that a lipid-soluble xenobiotic or endobiotic compound is enzymatically transformed into (a) polar, water-soluble, and excretable metabolite(s). The major organ for drug metabolism is the liver. […] However, some metabolites may have enhanced activity or toxic effects. Thus drug metabolism may include both “detoxication” and “toxication” processes. One of the major enzyme systems that determine the organism's capability of dealing with drugs and chemicals is represented by the cytochrome P450 monooxygenases, which are NADPH dependent enzymes. Metabolic stability of compounds can be determined in vitro with the use of subcellular human tissue (see example C.5.a.). Here metabolic stability of the compounds is expressed as % of drug metabolised after 15 minutes incubation of these compounds with microsomes. Quantitation of the compounds was determined by LC-MS analysis. Metabolic stability of compounds can also be determined by calculating the half live of compounds in rat hepatocyte cells (see example C.5.b.).
Rat hepatocytes were isolated from male Sprague Dowley rats. The compounds were dissolved to a 5 mM stock solution in 100% DMSO and incubated at a final concentration of 5 μM for 0, 15, 30, 60 and 120 min with rat hepatocyte cell cultures (0.5 million viable cells/0.5 ml) using 24-well plates.
Samples were prepared for LC-MS by addition of two volumes of DMSO. The samples were thoroughly shaken and subsequently centrifuged at 900 g for 10 min (room temperature). All experiments were performed in triplicate. Of the resulting supernatant 50 μl was analysed by LC-MS.
For LC-MS, elution of samples was performed on a Hypersil BDS C18 column (50×4.6 mm, 5 μm, Thermohypersil, UK). […]
Total injection volume of samples was 50 μL. […] The mass spectrometer was operated in positive ion mode in SIM adjusted to the mass of M+H with a scan width of 1 Da for quantification purposes. […] The metabolic stability of compounds in rat hepatocytes was expressed as in vitro half-lives. […]

solubility kinetic [1]: > 455 µM
half-life at 5 μM [2]: 30 to 55 min
melting point: 209 °C
Structure (SMILES): Cn1c(CNCC2CCN(c3ncc(C(=O)NO)cn3)CC2)nc2ccccc21 [Compound 3]
